Experimental data from patent US5204352A, “Compounds exhibiting anti-parasitic activity and a method for their use” (The United States of America as represented by the …, priority 1987, dated 1993).

Tests used:
in vivo = assay: in vivo; set-up: species or system mice; details: mouse, sc
Experimental: The preferred mode of administration of these compounds is subcutaneously. With subcutaneous administration, however, many of the compounds show lethal toxicity at very high dosage amounts. Thus, it is also possible to administer these compounds peritoneally. Compounds which are subcutaneously active are generally peritoneally active at higher doses. Further, none of the compounds administered peritoneally have shown lethal toxicity at dosages up to 400 mg/kg.
(§1) The compounds of the present invention were evaluated biologically in vivo with groups of 5 mice at various dose levels. Unless otherwise indicated, the data are for subcutaneous administration. Dose levels marked with an asterisk are for peritoneal administration in a HEC+T medium. In addition, Table 2 present results of peritoneal administration with substituted quanylhydrazones. The biological evaluation was done according to a standard protocol based on the method described by Rane et al., Amer. J. Trop. Med Hyg. 25:395 (1976).

Trypanosoma rhodesiense [1] = assay: In vivo trypanocidal activity in infected mice (protocol based on Rane et al.); details: subcutaneous
Experimental: as §1, with “(1976). […]” for “(1976).”

Trypanosoma rhodesiense [2] = details: previously known bis-amidine and bis-guanylhydrazones; cited from earlier work

Structure (SMILES)	Trypanocidal activity, cures (Trypanosoma rhodesiense [1]; 13 mg/kg)	Trypanocidal activity (Trypanosoma rhodesiense [2])	also measured
Cc1ccc2n(c1)cc(-c1ccc(C=NNC3=NCCCN3)cc1)[n+]2C [2-(3,4,5,6-tetrahydropyrimidyI)hydrazone of 1,6-dimethyl-2-(4'-formylphenyl)imidazo[1,2-a]-pyridinium bromide]	–	–	MTD (in vivo): ~100 mg/kg
C[n+]1c(C=Cc2ccc(C=NNC(=N)N3CCCC3)cc2)cn2ccccc21 [BL12165]	10/10	–	Increase in survival (Trypanosoma rhodesiense [1]; 1.6 mg/kg): 5.2 days; Trypanocidal activity, cures (Trypanosoma rhodesiense [1]; 1.6 mg/kg): 6/10; Increase in survival (Trypanosoma rhodesiense [1]; 3.3 mg/kg): 12.3 days; Trypanocidal activity, cures (Trypanosoma rhodesiense [1]; 3.3 mg/kg): 2/5; Trypanocidal activity, cures (Trypanosoma rhodesiense [1]; 26 mg/kg): 15/15
Cn1cc[n+](C)c1C=Cc1ccc(C=NNC2=NCCCN2)cc1 [BL21584]	10/10	–	Trypanocidal activity, cures (Trypanosoma rhodesiense [1]; 6.6 mg/kg): 5/5
CCN=C(NCC)NN=Cc1ccc(OCc2n(C)cc[n+]2C)cc1 [BL28038]	3/5	–	–
N=C(N)c1ccc(-c2cc3ccc(C(=N)N)cc3[nH]2)cc1 [DAPI, 2-phenylindole-5-4'-bis-carboxamidine]	–	show trypanocidal activity	–
N=C(N)c1cccc(NC(=O)Nc2cccc(C(=N)N)c2)c1 [aminocarbilide]	–	show trypanocidal activity	–
N=C(N)c1ccc(N=NNc2ccc(C(=N)N)cc2)cc1 [berenil]	–	show trypanocidal activity	–
CC(=NNC(=N)N)c1cccc(C(C)=NNC(=N)N)c1 [m-diacetylbenzene-bis-guanylhydrazone]	–	show trypanocidal activity	–
N=C(N)c1ccc(OCCCCCOc2ccc(C(=N)N)cc2)cc1 [pentamidine]	–	show trypanocidal activity	–
